Experimental data reported in patent US10703779B2, “Oxadiazole cyclic peptides” (THE GOVERNING COUNCIL OF THE UNIVERSITY OF TORONTO, priority 2015, dated 2020).
Several values for one entry are separate records, joined by “and”; a condition that tells them apart may be missing. Equal entries are not always repeated. Where two headings read alike, the source gives them in different places.

Tests used:
[1] = multicomponent bond
[2] = multicomponent bond; 18-membered ring; propionaldehyde/(N-isocyanimino)triphenylphosphorane; 25.0 °C
[3] = passive artificial membrane permeability (PAMPA) assay; type: in vitro ADME; conditions: FIG. 10, oxadiazole-containing macrocycles (entries 1-7) compared with homodetic counterparts (entries 8-12)
From the text: Passive membrane permeability is an important property for the development of new therapeutics. […] Using this analysis method a −log Pe value <6.0 is indicitive of a passively membrane permeable compound, while a −log Pe>6.0 is indicative of a poorly permeable or non-permeable compound. […] (entry 12).

[4] = 15-membered ring, propionaldehyde/(N-isocyanimino)triphenylphosphorane, DCE/MeCN 1:1, 25.0 mM, 50.0 °C
[5] = 18-membered ring, propionaldehyde/(N-isocyanimino)triphenylphosphorane, DCE/MeCN 1:1, 25.0 mM, 50.0 °C
[6] = 18-membered ring, propionaldehyde/(N-isocyanimino)triphenylphosphorane, DCE/MeCN 1:1, 25.0 mM, 50.0 °C, 2 steps
[7] = 18-membered ring, propionaldehyde/(N-isocyanimino)triphenylphosphorane, DCE/MeCN 1:1, 20.0 mM, 50.0 °C
[8] = 21-membered ring, propionaldehyde/(N-isocyanimino)triphenylphosphorane, DCE/MeCN 1:1, 25.0 mM, 50.0 °C, 2 steps
[9] = 21-membered ring, propionaldehyde/(N-isocyanimino)triphenylphosphorane, DCE/MeCN 1:1, 25.0 mM, 50.0 °C
[10] = 18-membered ring, phenylacetaldehyde/(N-isocyanimino)triphenylphosphorane, DCE/MeCN 1:1, 25.0 mM, 50.0 °C, 2 steps

AGFA
ring closure, isolated yield ([1]; 15-membered ring): 32% | ring closure, isolated yield [1, 4]: 24%

ALFA
ring closure, isolated yield [1, 4]: 20%

APLGA
ring closure, isolated yield [1, 5]: 15%

APLGK
ring closure, isolated yield [1, 6]: 60%

APLGS
ring closure, isolated yield [1, 6]: 70%

GPLGA
ring closure, isolated yield ([1]; 18-membered ring): 13% and 25% | ring closure, isolated yield [1, 5]: 20%

PAFA
ring closure, isolated yield [1, 4]: 23%

PALAF
ring closure, isolated yield [1, 7]: 20%

PALGF
ring closure, isolated yield [1, 7]: 25%

PASWKG
ring closure, isolated yield [1, 8]: 7%

PDAWG
ring closure, isolated yield [1, 6]: 22%

PDAWYG
ring closure, isolated yield [1, 8]: 28%

PFDLA
ring closure, isolated yield [1, 6]: 45%

PFLDA
ring closure, isolated yield ([1]; 18-membered ring, acetone/(N-isocyanimino)triphenylphosphorane, DCE/MeCN 1:1 + acetone 30% v/v, 25.0 mM, 50.0 °C, 2 steps): 10%

PFLLF
ring closure, isolated yield ([1]; 18-membered ring, propionaldehyde/(N-isocyanimino)triphenylphosphorane, DCE/MeCN 1:1, 16.7 mM, 50.0 °C): 25%

PGLAF
ring closure, isolated yield [1, 7]: 23%

PGLGF
ring closure, conversion [2]: 100% | ring closure, isolated yield ([1]; 18-membered ring): 32% | ring closure, isolated yield ([1]; 18-membered ring, phenylacetaldehyde/(N-isocyanimino)triphenylphosphorane, DCE/MeCN 1:1, 25.0 mM, 50.0 °C): 29% | ring closure, isolated yield ([1]; 18-membered ring, propionaldehyde/(N-isocyanimino)triphenylphosphorane, DCE/MeCN 1:1, 50.0 mM, 25.0 °C): 68%

PGLGFA
ring closure, isolated yield [1, 9]: 41%

PGRGDWA
ring closure, isolated yield ([1]; 24-membered ring, propionaldehyde/(N-isocyanimino)triphenylphosphorane, DCE/MeCN 1:1, 25.0 mM, 50.0 °C, 2 steps): 22%

PLDFA
ring closure, isolated yield [1, 6]: 52%

PRGDA
ring closure, isolated yield [1, 6]: 70%

PSLYA
ring closure, isolated yield [1, 6]: 24%

PSLYG
ring closure, isolated yield [1, 10]: 22%

PSWAG
ring closure, isolated yield [1, 10]: 26%

PSarLGF
ring closure, isolated yield ([1]; 18-membered ring, α-MIDA-borylaldehyde/(N-isocyanimino)triphenylphosphorane, DCE/MeCN 1:1, 25.0 mM, 50.0 °C): 28%

PSarLGFA
ring closure, isolated yield [1, 9]: 42%

PWASG
ring closure, isolated yield [1, 6]: 28%

cyclo(PFLLFA)
passive membrane permeability (result in words) [3]: single exception
